# Reference: US10034862B2, “Solid pharmaceutical composition comprising amlodipine and losartan” (HANMI PHARM. CO., LTD., priority 2014, dated 2018)
# Assays:
# [1] = Dissolution of losartan at different pH (gelation); assay type: physicochemical
# Description: However, when the combined formulation of amlodipine and losartan was prepared, undesirable gelation of losartan was observed. […] As such, in the combined formulation of amlodipine and losartan, amlodipine may also be trapped in the losartan gel due to the gelation of losartan, resulting in a decrease in dissolution rate.
# [2] = cited from earlier work
smiles,measurement,setting,value
"CCCCc1nc(Cl)c(CO)n1Cc1ccc(-c2ccccc2-c2nnn[nH]2)cc1 [losartan, 2-butyl-4-chloro-1-[[2′-(1H-tetrazol-5-yl)[1,1′-biphenyl]-4-yl]methyl]-1H-imidazol-5-methanol]",dissolution of losartan (in words),"[1]; low pH (e.g., pH 1.2 or 2.0), gelation",very slowly dissolved
same,dissolution of losartan (in words),"[1]; purified water or relatively high pH (e.g., pH 6.8)",easily dissolved
same,reduction of Cmax of losartan after food ingestion,[2],about 10%
